Molecules are shown by their SMILES. Activity calls are given as the source filed them. The rule behind the calls is not given here.

These results are taken from ChEMBL document CHEMBL1143235, “1-Hydroxy-2-pyridinone-based MMP inhibitors: synthesis and biological evaluation for the treatment of ischemic stroke” (Bioorg Med Chem Lett, 2008).

Series [1] has as its target T1, Stromelysin-1 (Homo sapiens, UniProt P08254). In words: Inhibition of MMP3.
Target sequence in this assay (P08254 whole entry): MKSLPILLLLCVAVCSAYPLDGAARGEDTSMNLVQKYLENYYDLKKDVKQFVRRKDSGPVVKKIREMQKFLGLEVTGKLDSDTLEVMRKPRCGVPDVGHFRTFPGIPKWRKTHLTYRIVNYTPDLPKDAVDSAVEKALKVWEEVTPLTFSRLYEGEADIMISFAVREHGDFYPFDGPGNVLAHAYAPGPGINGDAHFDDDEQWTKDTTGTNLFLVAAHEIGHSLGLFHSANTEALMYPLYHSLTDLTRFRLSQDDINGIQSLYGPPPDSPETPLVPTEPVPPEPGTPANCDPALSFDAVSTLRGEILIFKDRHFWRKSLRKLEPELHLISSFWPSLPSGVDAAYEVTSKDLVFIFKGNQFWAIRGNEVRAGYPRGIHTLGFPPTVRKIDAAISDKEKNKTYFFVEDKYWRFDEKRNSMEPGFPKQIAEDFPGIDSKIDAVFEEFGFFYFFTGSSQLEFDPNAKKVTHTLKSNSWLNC
Series [2] concerns the target T2, Interstitial collagenase (Homo sapiens, UniProt P03956).
T2 sequence (P03956 whole entry): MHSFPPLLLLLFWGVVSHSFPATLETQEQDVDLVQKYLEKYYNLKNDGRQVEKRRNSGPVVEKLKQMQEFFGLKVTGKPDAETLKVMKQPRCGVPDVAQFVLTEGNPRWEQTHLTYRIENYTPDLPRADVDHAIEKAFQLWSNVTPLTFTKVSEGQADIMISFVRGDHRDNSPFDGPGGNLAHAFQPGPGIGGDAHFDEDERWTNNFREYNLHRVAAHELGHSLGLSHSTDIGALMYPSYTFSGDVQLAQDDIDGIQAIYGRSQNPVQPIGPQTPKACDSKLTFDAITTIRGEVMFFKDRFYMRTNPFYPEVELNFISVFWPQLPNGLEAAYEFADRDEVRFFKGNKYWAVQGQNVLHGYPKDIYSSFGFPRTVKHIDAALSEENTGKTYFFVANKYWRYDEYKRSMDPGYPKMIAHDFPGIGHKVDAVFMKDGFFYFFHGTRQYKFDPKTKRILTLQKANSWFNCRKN
Nature of the series: Inhibition of MMP1.

Series [3] addresses Collagenase 3 (Homo sapiens, UniProt P45452). Nature of the series: Inhibition of MMP13.
The target in series [4] is T3, 72 kDa type IV collagenase (Homo sapiens, UniProt P08253). In words: Inhibition of MMP2.
Target sequence in this assay (P08253 whole entry): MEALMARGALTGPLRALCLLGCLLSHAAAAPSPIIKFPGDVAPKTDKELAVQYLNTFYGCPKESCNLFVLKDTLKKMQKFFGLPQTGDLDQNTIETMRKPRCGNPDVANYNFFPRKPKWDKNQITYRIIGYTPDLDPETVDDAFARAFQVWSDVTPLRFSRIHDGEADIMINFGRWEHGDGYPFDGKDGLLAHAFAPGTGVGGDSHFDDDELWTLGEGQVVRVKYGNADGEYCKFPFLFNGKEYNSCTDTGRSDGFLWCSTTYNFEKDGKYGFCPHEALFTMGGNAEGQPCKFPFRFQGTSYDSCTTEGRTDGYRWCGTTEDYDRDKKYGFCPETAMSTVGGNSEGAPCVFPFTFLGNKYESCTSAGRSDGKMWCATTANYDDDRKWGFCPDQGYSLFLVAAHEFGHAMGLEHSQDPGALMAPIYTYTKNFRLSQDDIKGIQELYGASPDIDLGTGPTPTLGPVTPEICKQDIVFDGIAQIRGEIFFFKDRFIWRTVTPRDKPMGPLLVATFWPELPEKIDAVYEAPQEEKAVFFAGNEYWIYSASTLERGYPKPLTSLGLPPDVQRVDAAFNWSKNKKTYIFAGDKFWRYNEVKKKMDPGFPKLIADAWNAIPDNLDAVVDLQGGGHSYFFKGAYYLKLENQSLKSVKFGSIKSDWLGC
The target of series [5] is T4, Matrix metalloproteinase-9 (Homo sapiens, UniProt P14780). In words: Inhibition of MMP9.
T4 sequence (P14780 whole entry): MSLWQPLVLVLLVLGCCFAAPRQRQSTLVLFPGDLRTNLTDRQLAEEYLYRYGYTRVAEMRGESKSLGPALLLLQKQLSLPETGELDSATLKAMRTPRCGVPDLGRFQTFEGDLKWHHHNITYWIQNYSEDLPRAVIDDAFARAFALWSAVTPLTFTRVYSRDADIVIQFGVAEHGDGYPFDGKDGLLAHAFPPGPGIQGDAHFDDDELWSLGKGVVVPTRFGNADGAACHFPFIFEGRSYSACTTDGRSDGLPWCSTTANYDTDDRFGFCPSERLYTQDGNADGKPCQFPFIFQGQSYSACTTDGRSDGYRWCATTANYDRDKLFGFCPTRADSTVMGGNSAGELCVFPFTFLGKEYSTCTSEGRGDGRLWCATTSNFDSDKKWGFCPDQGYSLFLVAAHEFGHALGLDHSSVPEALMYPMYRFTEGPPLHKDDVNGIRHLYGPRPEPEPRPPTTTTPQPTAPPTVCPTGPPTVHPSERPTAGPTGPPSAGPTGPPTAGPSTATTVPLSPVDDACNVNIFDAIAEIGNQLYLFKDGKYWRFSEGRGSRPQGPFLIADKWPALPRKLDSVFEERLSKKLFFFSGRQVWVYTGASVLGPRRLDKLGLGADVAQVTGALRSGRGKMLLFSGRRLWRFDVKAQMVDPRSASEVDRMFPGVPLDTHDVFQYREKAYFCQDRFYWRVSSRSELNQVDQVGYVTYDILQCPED
The nature of series [6]: Drug level in rat at 2 mg/kg, iv. Also noted: dose 2 mg/kg, route intravenous. The format is ADME, organism-based. Particulars: in vivo.
Series [7] can be described thus: Apparent elimination half life in rat at 2 mg/kg, iv. In kind it is ADME, organism-based. More on the design: dose 2 mg/kg, route intravenous. To be noted: in vivo.
The subject of series [8] is Rattus norvegicus. Nature of the series: AUC in rat at 2 mg/kg, iv. The format is ADME, organism-based, Plasma. Also noted: dose 2 mg/kg, route intravenous. To be noted: in vivo.
In series [9] the test system is Mus musculus. In words: Reduction of focal ischemia-induced brain edema in C57 Black/6 mouse at 6 mg/kg, iv after 2 hrs by wet/dry method. In kind it is functional, organism-based. More on the design: dose 6 mg/kg.
Series [10] can be described thus: Volume of distribution at steady state in rat at 2 mg/kg, iv. Also noted: dose 2 mg/kg, route intravenous. The format is ADME, organism-based. Particulars: in vivo, read-out: Vdss.
Series [11] can be described thus: Plasma concentration in mouse at 10 mg/kg, po after 1 hr.
Series [12] has as its target T1, Stromelysin-1. Nature of the series: Inhibition of MMP3 at 100 uM.
Target sequence in this assay (P08254 100-477 limits assumed): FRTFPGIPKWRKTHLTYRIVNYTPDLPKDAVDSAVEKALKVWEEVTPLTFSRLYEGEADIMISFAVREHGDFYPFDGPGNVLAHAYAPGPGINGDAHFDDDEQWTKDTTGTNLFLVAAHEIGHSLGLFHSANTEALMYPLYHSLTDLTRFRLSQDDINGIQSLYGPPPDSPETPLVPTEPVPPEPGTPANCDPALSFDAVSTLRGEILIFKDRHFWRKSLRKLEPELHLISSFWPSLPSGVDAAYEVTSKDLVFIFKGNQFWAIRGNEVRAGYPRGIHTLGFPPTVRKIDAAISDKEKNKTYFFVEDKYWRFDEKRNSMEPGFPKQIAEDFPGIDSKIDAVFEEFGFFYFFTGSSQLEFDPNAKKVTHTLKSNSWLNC
For series [13], the target named is T4, Matrix metalloproteinase-9. In words: Inhibition of MMP9 at 100 uM.
For series [14], the target named is T3, 72 kDa type IV collagenase. To be noted: 100 uM.
Target sequence in this assay (P08253 110-660 limits assumed): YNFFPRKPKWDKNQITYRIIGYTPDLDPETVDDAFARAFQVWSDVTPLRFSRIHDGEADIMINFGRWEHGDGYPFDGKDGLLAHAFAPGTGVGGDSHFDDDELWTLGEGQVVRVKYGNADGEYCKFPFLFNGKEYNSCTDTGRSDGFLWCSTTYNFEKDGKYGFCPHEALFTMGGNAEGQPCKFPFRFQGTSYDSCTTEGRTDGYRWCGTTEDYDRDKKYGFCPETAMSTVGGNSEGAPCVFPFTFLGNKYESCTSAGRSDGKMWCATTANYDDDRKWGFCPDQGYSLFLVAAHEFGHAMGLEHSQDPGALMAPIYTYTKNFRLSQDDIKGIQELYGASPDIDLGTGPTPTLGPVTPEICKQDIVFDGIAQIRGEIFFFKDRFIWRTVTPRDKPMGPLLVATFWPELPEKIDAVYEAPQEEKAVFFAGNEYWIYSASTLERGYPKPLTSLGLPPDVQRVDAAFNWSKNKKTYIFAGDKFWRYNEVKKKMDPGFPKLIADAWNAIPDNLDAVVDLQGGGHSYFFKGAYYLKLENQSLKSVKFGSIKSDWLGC
Description: Inhibition of MMP2 at 100 uM

Regarding `COc1ccc(Oc2ccc(S(=O)(=O)N(C)c3cccn(O)c3=O)cc2)cc1`, the IC50 – broadly, the concentration that inhibits the measured activity by half – in series [1] is 79.1 nM; in [2], above 1000 nM; in [3], 6.8 nM.
In the case of `CC(C)N(c1cccn(O)c1=O)S(=O)(=O)c1ccc(Oc2ccccc2)cc1`, the IC50 is 41 nM in series [4] and 57.5 nM in series [5].
Take `Cc1ccc(Oc2ccc(S(=O)(=O)N(C)c3cccn(O)c3=O)cc2)cc1`: the 50% inhibitory concentration (IC50) in series [4] is 6.1 nM; in series [5], 4.4 nM.
In the case of `CN(c1cccn(O)c1=O)S(=O)(=O)c1ccc(Oc2ccc(Cl)cc2)cc1`, the IC50 was 5 nM in [4]; 56.5 nM in [1]; 2.4 nM in series [5]; above 1000 nM in [2]; 2.5 nM in series [3]. The same compound registered a C0 in series [6] of 8.4 µM. In addition, the half-life (usually the time in which the quantity being followed falls by half) in series [7] is 47 h. The AUC – broadly, concentration integrated over time – in [8] came out at 179 µg·h/mL. Besides, in series [9], the outcome was Active. Besides, the Vd in series [10] was determined as 1.75 L/kg. This compound also displayed a concentration at 1 h in series [11] of 34 µM.
In the case of `O=c1c(N(CCN2CCOCC2)S(=O)(=O)c2ccc(Oc3ccc(Cl)cc3)cc2)cccn1O`, the concentration for half-maximal inhibition (IC50) in series [1] is 62.9 nM; in [2], above 1000 nM; in series [3], 4 nM.
Turning to `CCN(c1cccn(O)c1=O)S(=O)(=O)c1ccc(Oc2ccccc2)cc1`, the 50% inhibitory concentration (IC50) in [4] came to 6.5 nM; in series [5], 3.6 nM.
`CN(c1cccn(O)c1=O)S(=O)(=O)c1ccc(Oc2ccc(OC(F)(F)F)cc2)cc1` returned a concentration for half-maximal inhibition (IC50) in [5] of 1.8 nM.
With `Cc1cc(=O)c(O)c(C(=O)NCc2ccc(-c3ccccc3)cc2)o1`, the inhibition in series [12], in [13] and in series [14] was 34% throughout.
For `CN(c1cccn(O)c1=O)S(=O)(=O)c1ccc(Oc2ccccc2)cc1`, the IC50 in series [4] is 8.3 nM; in series [5], 5 nM.
